Measured values taken from patent publication US5775339A, “Photodynamic therapy of pigment-related lesions” (Pharmacyclics, Inc., priority 1997, dated 1998).
Where “and” joins values, the source holds several entries; their conditions need not be identical. Equal values may be shown once. Entries after “also recorded” stand apart in the source; their conditions may differ.

How the values were obtained:
B16 murine melanoma = B16 murine melanoma model; cited from earlier work
[1] = Biodistribution of LuT2BET in B16 melanoma-bearing mice (fluorescence of tissue extracts and plasma); format: in vivo, C57 mice
Experimental: The present example provides results from a study of the biodistribution of lutetium texaphyrin in melanoma-bearing mice. The biodistribution of LuT2BET was analyzed in C57 mice bearing B16 melanoma at 3 h, 5 h, and 24 h after an intravenous administration of 10 or 20 μmol/kg.
(§1) Melanoma Cells: B16F10 melanotic melanoma murine cells were obtained from the University of California, San Francisco Cell Culture Facility. These cells are highly pigmented and metastatic in vivo. Cells were grown in Iscove's Modified Dulbeccos' Medium (Gibco, Grand Island, N.Y.) supplemented with 10% fetal bovine serum (JRH Biosciences, Woodland, Calif.) and penicillin/streptomycin (Sigma, St. Louis, Mo.).
(§2) Animals and Tumor Model: Inbred C57BL/6N female mice, (C57 mice) seven to eight weeks of age, were obtained from Simonsen Laboratories Inc. (Gilroy, Calif.). The right flanks of the mice were shaved and depiled the day prior to tumor inoculation. B16F10 cells (5×10^5 cells in 0.05 mL PBS) were injected subcutaneously into the right hind flanks. Tumor size, i.e., length (l), width (w), and height (h), was measured 3 times a week with a vernier caliper. Tumor volumes were calculated using the formula for a hemiellipsoid (Rockwell and Kallman, 1972): […]
Biodistribution studies were performed on tumors having surface diameters of between about 5.5-7 mm and a depth of 4-6 mm.
Tissue Extraction Procedure: LuT2BET was administered via tail-vein injection at 10 or 20 μmol/kg. Tissues and plasma were analyzed at 3, 5 or 24 h post administration of the photosensitizer. Blood was collected in tubes containing 5 mg of solid EDTA and erythrocytes were removed by centrifugation. Plasma samples (125 μL) were mixed with 10 mM TRITON X-100® and analyzed for texaphyrin content by fluorescence. […] Samples were then analyzed for lutetium texaphyrin content by fluorescence (excitation=450 nm, emission=700-800 nm). […] Sensitizer accumulation is expressed as μg drug/g tissue (wet weight) or per mL plasma.
Statistical analysis: Values are expressed as mean±SD. […]

mammary carcinoma SMT-F = assay: Radiolabeled [14C]-LuT2BET uptake in SMT-F bearing mice; format: in vivo; conditions: 8.64 μmol/kg; for drug uptake (tumor): radiolabeled
Experimental: A dose of 8.64 μmol/kg LuT2BET produced drug uptake values of 5.1 μg/g, 4.7 μg/g, and 2.8 μg/g at 3 h, 5 h, and 24 h after injection, yielding tumor:muscle ratios of 8.45:1, 10:1 and 7:1, respectively.

B16F10 melanoma = assay: PDT response (tumor regrowth and survival) to LuT2BET and photoirradiation in melanoma-bearing mice; format: in vivo, C57 mice
Experimental: as §1, §2
Statistical analysis: Values are expressed as mean±SD. Values were compared using the unpaired Student's t-test. In the longevity analysis, Kaplan-Meier survival curves and log rank analysis for statistical significance were used. Statistical significance was assumed if P<0.05.
The present example provides results of a study wherein melanoma-bearing mice were administered LuT2BET and photoirradiated. […] PDT response was dependent upon drug dose, irradiation exposure and administration time.
PDT Protocol: C57 mice, bearing B16F10 melanoma as described in Example 1, were used for PDT experiments when the tumors reached surface diameters of between 4-6 mm and a depth of 2.5-3 mm. […] A 400 μm diameter fiberoptic cable coupled the laser to a microlens which produced uniform light intensity in the treatment field. Light fluences ranged between 150 and 600 J/cm^2, and the power density was set at 150 mW/cm^2 as measured with a power meter (Scientech, Boulder, Colo.). The mice were restrained with laboratory tape during photoirradiation.

[2] = set-up: species or system C57 mice; conditions: mouse, in vivo
Description: Tumor Temperature Measurements: Tumor temperature during laser irradiation was monitored with a 33 gauge hypodermic thermocouple probe (Omega Engineering, Stamford, Conn.) placed percutaneously at the base of the tumor.

melanoma = format: in vivo, human; conditions: 0.5 μmol/kg i.v., 150 J/cm^2
Experimental: A patient with recurrent melanoma received a single dose of LuT2BET (0.5 μmol/kg; 2 mM in 5% mannitol/water; (a human equivalent of 10% of the mouse LD50)), administered intravenously, followed three hours later by photoirradiation by laser (732 nm light, 150 J/cm^2 at a power density of 75 mW/cm^2 using a LAMBDA PLUS® laser, Coherent, Palo Alto, Calif.). Four fields and a total of ten individual lesions were treated.

[3] = Absorption of LuT2BET in 5% mannitol; format: physicochemical; conditions: 732 nm
Experimental: LuT2BET: The synthesis and chemical analysis of lutetium texaphyrin (LuT2BET, texaphyrin A2 of Table 1 where M is lutetium) was provided in U.S. Pat. Nos. 5,252,720 and 5,457,183 and in PCT publication WO 95/10307. LuT2BET was dissolved in 5% mannitol at a 2 mM concentration. LuT2BET absorbs strongly in the far-red region of the electromagnetic spectrum, having a molar extinction coefficient of 23,000 M^-1 cm^-1 in this solution at 732 nm, the wavelength used for photoirradiation.

[4] = 10 μmol/kg, 300 J/cm^2, 5 h, n = 6
[5] = 10 μmol/kg, 500 J/cm^2, 5 h, n = 11
[6] = 20 μmol/kg, 150 J/cm^2, 24 h, n = 7
[7] = 20 μmol/kg, 300 J/cm^2, 24 h, n = 7

silicon(IV)-naphthalocyanine
tumor retardation not associated with thermal effects (B16 murine melanoma): modest
tumor selectivity (B16 murine melanoma): no tumor selectivity

CC(=O)[O-].CC(=O)[O-].CCc1c(CC)c2cc3nc(cnc4cc(OCCOCCOCCOC)c(OCCOCCOCCOC)cc4ncc4nc(cc1[n-]2)C(CCCO)=C4C)C(C)=C3CCCO.O.[Lu+3] [LuT2BET]
toxicity ([1]; 10 or 20 μmol/kg i.v., biodistribution study): no toxicity was observed
tumor levels compared with plasma, muscle and skin ([1]; mouse, in vivo): higher than plasma, muscle and skin at all three time points
uptake into B16 melanoma compared to SMT-F ([1]; mouse, in vivo): increased uptake of lutetium texaphyrin into B16 melanoma was observed
tumor:muscle ratio (mammary carcinoma SMT-F; 3 h): 8.45 :1
drug uptake (tumor) (mammary carcinoma SMT-F; 3 h): 5.1 µg/g
tumor:muscle ratio (mammary carcinoma SMT-F; 5 h): 10 :1
drug uptake (tumor) (mammary carcinoma SMT-F; 5 h): 4.7 µg/g
tumor:muscle ratio (mammary carcinoma SMT-F; 24 h): 7 :1
drug uptake (tumor) (mammary carcinoma SMT-F; 24 h): 2.8 µg/g
MST (median survival time following PDT) (B16F10 melanoma; 10 μmol/kg, 150 J/cm^2, 3 h, n = 3): 23 days
Regrowth (time to reach ten times the original tumor volume) (B16F10 melanoma; 10 μmol/kg, 150 J/cm^2, 3 h, n = 12): 15.0 ± 3.38 days
inhibition of tumor regrowth, in words (B16F10 melanoma; 10 μmol/kg, 300 J/cm^2, 5 h): no detectable inhibition of tumor regrowth was seen
MST (median survival time following PDT) (B16F10 melanoma; [4]): 17 days
Regrowth (time to reach ten times the original tumor volume) (B16F10 melanoma; [4]): 8.5 ± 3.0 days and 8.5 days
PDT effect, in words (B16F10 melanoma; 10 μmol/kg, 400, 500 and 600 J/cm^2, 5 h): significantly increased the PDT effect
Regrowth (time to reach ten times the original tumor volume) (B16F10 melanoma; 10 μmol/kg, 400 J/cm^2, 5 h, n = 7): 11.6 ± 2.1 days
MST (median survival time following PDT) (B16F10 melanoma; 10 μmol/kg, 400 J/cm^2, 5 h, n = 8): 18.5 days
MST (median survival time following PDT) (B16F10 melanoma; [5]): 23 days
Regrowth (time to reach ten times the original tumor volume) (B16F10 melanoma; [5]): 13.2 ± 3.5 days
Regrowth (time to reach ten times the original tumor volume) (B16F10 melanoma; 10 μmol/kg, 600 J/cm^2, 5 h, n = 5, P<0.0001): 15.6 ± 3.6 days and 15.6 days
MST (median survival time following PDT) (B16F10 melanoma; 10 μmol/kg, 600 J/cm^2, 5 h, n = 6): 28 days
survival time, in words (B16F10 melanoma; 10 μmol/kg, at least about 500 J/cm^2): A significant increase in survival time
Regrowth (time to reach ten times the original tumor volume) (B16F10 melanoma; 10 μmol/kg, no light, n = 5): 7.8 ± 0.8 days
MST (median survival time following PDT) (B16F10 melanoma; 10 μmol/kg, no light, n = 6): 17.5 days
Regrowth (time to reach ten times the original tumor volume) (B16F10 melanoma; 20 μmol/kg, 150 J/cm^2, 5 h, n = 8): 10.6 ± 2.9 days
MST (median survival time following PDT) (B16F10 melanoma; 20 μmol/kg, 150 J/cm^2, 5 h, n = 8, P=0.011): 26 days
tumor regrowth, in words (B16F10 melanoma; 20 μmol/kg, 150 J/cm^2, 24 h): did not yield any significant change in tumor regrowth
MST (median survival time following PDT) (B16F10 melanoma; [6]): 19 days
Regrowth (time to reach ten times the original tumor volume) (B16F10 melanoma; [6]): 6.7 ± 0.8 days
survival time, in words (B16F10 melanoma; 20 μmol/kg, 150 and 300 J/cm^2, 5 h): A significant increase in survival time
Regrowth (time to reach ten times the original tumor volume) (B16F10 melanoma; 20 μmol/kg, 300 J/cm^2, 5 h, n = 13): 15.3 ± 2.6 days and 15.3 days
MST (median survival time following PDT) (B16F10 melanoma; 20 μmol/kg, 300 J/cm^2, 5 h, n = 13, P=0.0002): 27 days
MST (median survival time following PDT) (B16F10 melanoma; [7]): 20 days
Regrowth (time to reach ten times the original tumor volume) (B16F10 melanoma; [7]): 9.6 ± 2.1 days and 9.6 days
tumor response, in words (B16F10 melanoma; 20 μmol/kg, irradiated 5 h after administration, P<0.001): A significant response
MST (median survival time following PDT) (B16F10 melanoma; 20 μmol/kg, no light, n = 5): 15 days
Regrowth (time to reach ten times the original tumor volume) (B16F10 melanoma; 20 μmol/kg, no light, n = 5): 8.2 ± 2.3 days
tumor regrowth, in words (B16F10 melanoma; 20 μmol/kg, sensitizer alone): No significant difference in tumor regrowth
survival time, in words (B16F10 melanoma; LuT2BET alone, 10 and 20 μmol/kg, vs controls): no apparent difference between light alone, LuT2BET alone, and the controls
longevity / survival time overall, in words (B16F10 melanoma; PDT, 10 or 20 μmol/kg): increased longevity of the treated animals; also recorded: in some cases the longevity of the animals was doubled; also recorded: significantly increased the survival time of the melanoma-bearing mice
retardation of tumor growth overall, in words (B16F10 melanoma; PDT, 10 or 20 μmol/kg): significant retardation of growth of the tumor; also recorded: efficacious in the retardation of the highly pigmented B16 melanoma in C57 mice
increase in tumor temperature [2]: No measurable increase in tumor temperature
response of remaining lesions (melanoma; several days post-therapy): the remaining lesions showed no change
response of several larger lesions (melanoma; several days post-therapy): several of the larger lesions had decreased in size
response of several smaller lesions (melanoma; several days post-therapy): several of the smaller lesions had disappeared
response of lesions at two months (melanoma; two months post-therapy): continued to show improvement
molar extinction coefficient [3]: 23,000 M^-1 cm^-1
